Read-outs that look alike come from different tables or passages of the source.
Tests used:
[1] = molecular target: T1, full-length beta-Catenin (Uniprot ID P35222) (Homo sapiens, UniProt P35222); assay: Fluorescence polarization IC50 (beta-catenin / 5FAM-TCF4 10-53 competition); assay type: binding
T1 construct: 10 nM full-length beta-Catenin (Uniprot ID P35222)
T1 sequence (P35222 1-781): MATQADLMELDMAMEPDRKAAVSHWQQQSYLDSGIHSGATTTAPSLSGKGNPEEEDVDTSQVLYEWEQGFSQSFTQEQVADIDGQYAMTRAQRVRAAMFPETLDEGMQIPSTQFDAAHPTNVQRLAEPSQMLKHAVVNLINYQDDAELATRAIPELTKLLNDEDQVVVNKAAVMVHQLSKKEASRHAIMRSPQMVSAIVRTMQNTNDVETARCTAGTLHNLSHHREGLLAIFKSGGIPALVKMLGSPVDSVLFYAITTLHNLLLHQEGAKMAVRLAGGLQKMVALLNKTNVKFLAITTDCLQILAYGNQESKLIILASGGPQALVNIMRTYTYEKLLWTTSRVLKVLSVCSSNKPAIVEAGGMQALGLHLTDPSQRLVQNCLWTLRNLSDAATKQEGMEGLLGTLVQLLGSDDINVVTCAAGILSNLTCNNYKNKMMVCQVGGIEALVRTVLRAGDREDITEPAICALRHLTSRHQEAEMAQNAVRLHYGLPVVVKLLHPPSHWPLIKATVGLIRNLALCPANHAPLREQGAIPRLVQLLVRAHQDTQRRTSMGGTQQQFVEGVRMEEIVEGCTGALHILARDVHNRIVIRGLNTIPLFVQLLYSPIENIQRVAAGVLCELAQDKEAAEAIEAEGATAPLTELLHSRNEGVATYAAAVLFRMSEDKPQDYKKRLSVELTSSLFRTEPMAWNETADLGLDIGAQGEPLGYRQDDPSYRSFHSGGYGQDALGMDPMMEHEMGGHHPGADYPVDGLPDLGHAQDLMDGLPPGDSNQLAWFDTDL

[2] = molecular target: T2, full-length B-Catenin (Uniprot ID P35222) (Homo sapiens, UniProt P35222); assay: Alphascreen binding assay (beta-catenin / biotin-TCF4 10-53)
T2 construct: 65 nM full-length B-Catenin (Uniprot ID P35222)
T2 sequence (P35222 1-781): T1 sequence (P35222 1-781)
Summary of the method: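 Final concentrations: 65 nM full-length human β-catenin plus 10 nM biotin-TCF4(10-53) peptide, test peptide 3-fold from 10 uM to 5 nM, preincubated 15 min at 20 °C in Tris pH 8.0/250 mM NaCl buffer. Nickel-chelate AlphaScreen donor/acceptor beads then added for 60 min in the dark; duplicate reads fitted to 1:1 binding model with Hill slope.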

CHI Log D procedure = assay type: physicochemical; settings: for CHI Log D: pH 7.4; for chromatographic logD: pH 7.4, CHI Log D

SMILES | IC50 ([1]; Table E2-1, read-out: beta-Catenin FP IC50) [µM] | IC50 ([1]; fluorescence polarization, beta-catenin, read-out: FP EC50) [µM] | EC50 [2] [µM] | CHI Log D (CHI Log D procedure) | chromatographic logD (CHI Log D procedure)
CC[C@H](C)[C@H](NC(=O)[C@H](CC(=O)O)NC(=O)[C@H](C)NC(C)=O)C(=O)N[C@]1(C)CCN(C)C(=O)OCC=CCCCCC[C@@](C)(C(=O)N[C@@H](Cc2ccccc2)C(=O)N[C@@H](Cc2c[nH]c3ccccc23)C(=O)N[C@@H](Cc2c[nH]cn2)C(N)=O)NC(=O)[C@H](CCC(N)=O)NC(=O)[C@H](Cc2ccccc2)NC(=O)[C@H](C)NC(=O)[C@H](C)NC(=O)[C@H](CC(=O)O)NC(=O)[C@H](CC(=O)O)NC1=O [I-64, Ac-Ala-Asp-Ile-RdN-Asp-Asp-Ala-Ala-Phe-Gln-S7-Phe-Trp-His-NH2] | 4.25 | 4.25 | 0.65 | 1.222 | 
CC(=O)N1CCC[C@]12CC=CCCCC1(CCCC=CCCCCCC[C@@](C)(C(=O)N[C@@H](CC(=O)O)C(=O)N[C@@H](Cc3c[nH]c4ccccc34)C(=O)N[C@@H](CCC(N)=O)C(N)=O)NC(=O)[C@H](C(C)C)NC(=O)[C@H](Cc3ccccc3)NC(=O)[C@H](C)NC(=O)[C@H](C)NC(=O)[C@H](CC(=O)O)NC(=O)[C@H](CC(=O)O)NC1=O)NC(=O)[C@H](C)NC(=O)[C@H](CC(=O)O)NC2=O (stereo partly drawn) [I-283, Ac-PL3-Asp-Ala-B5-Asp-Asp-Ala-Ala-Phe-Val-S8-Asp-Trp-Gln-NH2] |  |  | 9.54 |  | 1.29
CC(=O)N1CCC[C@]12CC=CCCCC1(CCCC=CCCCCCC[C@@](C)(C(=O)N[C@@H](Cc3ccccc3)C(=O)N[C@@H](Cc3c[nH]c4ccccc34)C(N)=O)NC(=O)[C@H](C(C)C)NC(=O)[C@H](Cc3ccccc3)NC(=O)[C@H](C)NC(=O)[C@H](C)NC(=O)[C@H](CC(=O)O)NC(=O)[C@H](CC(=O)O)NC1=O)NC(=O)[C@H](C)NC(=O)[C@H](CC(=O)O)NC2=O (stereo partly drawn) [I-289, Ac-PL3-Asp-Ala-B5-Asp-Asp-Ala-Ala-Phe-Val-S8-Phe-Trp-NH2] |  |  | 0.626 | 2.242 | 
CC(=O)N1CCC[C@]12CC=CCCCC1(CCCC=CCCCCCC[C@@](C)(C(=O)N[C@@H](Cc3ccccc3)C(=O)N[C@@H](Cc3csc4ccccc34)C(=O)N[C@@H](C)C(N)=O)NC(=O)[C@H](CCC(N)=O)NC(=O)[C@H](Cc3ccccc3)NC(=O)[C@H](C)NC(=O)[C@H](C)NC(=O)[C@H](Cc3ccc4ccccc4c3)NC(=O)[C@H](CC(=O)O)NC1=O)NC(=O)[C@H](C)NC(=O)[C@H](CC(=O)O)NC2=O (stereo partly drawn) [I-296, Ac-PL3-Asp-Ala-B5-Asp-2NapA-Ala-Ala-Phe-Gln-S8-Phe-BztA-Ala-NH2] |  |  | 1.91 |  | 2.94
CC(=O)N1CCC[C@]12CC=CCCCC1(CCCC=CCCCCCC[C@@](C)(C(=O)N[C@@H](Cc3ccccc3)C(=O)N[C@@H](Cc3csc4ccccc34)C(=O)N[C@@H](CCC(N)=O)C(N)=O)NC(=O)[C@H](CO)NC(=O)[C@H](Cc3ccccc3)NC(=O)[C@H](C)NC(=O)[C@H](C)NC(=O)[C@H](Cc3ccc4ccccc4c3)NC(=O)[C@H](CC(=O)O)NC1=O)NC(=O)[C@H](C)NC(=O)[C@H](CC(=O)O)NC2=O (stereo partly drawn) [I-298, Ac-PL3-Asp-Ala-B5-Asp-2NapA-Ala-Ala-Phe-Ser-S8-Phe-BztA-Gln-NH2] |  |  | 3.86 |  | 2.78
CC(=O)N1CCC[C@]12CC=CCCCC1(CCCC=CCCCCCC[C@@](C)(C(=O)N[C@@H](Cc3ccccc3)C(=O)N[C@@H](Cc3c[nH]c4ccccc34)C(=O)N[C@@H](CCC(N)=O)C(N)=O)NC(=O)[C@H](C(C)C)NC(=O)[C@H](Cc3c[nH]cn3)NC(=O)[C@H](C)NC(=O)[C@H](C)NC(=O)[C@H](CC(=O)O)NC(=O)[C@H](CC(=O)O)NC1=O)NC(=O)[C@H](C)NC(=O)[C@H](CC(=O)O)NC2=O (stereo partly drawn) [I-321, Ac-PL3-Asp-Ala-B5-Asp-Asp-Ala-Ala-His-Val-S8-Phe-Trp-Gln-NH2] |  |  | 2.24 | 2.073 | 

More lines, now with the values ahead:

IC50 ([1]; Table E2-1, read-out: beta-Catenin FP IC50) [µM] | IC50 ([1]; fluorescence polarization, beta-catenin, read-out: FP EC50) [µM] | EC50 [2] [µM] | CHI Log D (CHI Log D procedure) | chromatographic logD (CHI Log D procedure) | SMILES
 |  | 4.96 | 1.973 |  | CC(=O)N1CCC[C@]12CC=CCCCC1(CCCC=CCCCCCC[C@@](C)(C(=O)N[C@@H](Cc3ccccc3)C(=O)N[C@@H](Cc3c[nH]c4ccccc34)C(=O)N[C@@H](CCC(N)=O)C(N)=O)NC(=O)[C@H](C(C)C)NC(=O)[C@H](Cc3ccccc3)NC(=O)[C@H](C)NC(=O)[C@H](C)NC(=O)[C@H](CC(=O)O)NC(=O)[C@H](CC(=O)O)NC1=O)NC(=O)[C@H](C)NC(=O)[C@H](CCC(=O)O)NC2=O (stereo partly drawn) [I-279, Ac-PL3-Glu-Ala-B5-Asp-Asp-Ala-Ala-Phe-Val-S8-Phe-Trp-Gln-NH2]
 |  | 5.81 |  | 3.29 | CC(=O)N1CCC[C@]12CC=CCCCC1(CCCC=CCCCCCC[C@@](C)(C(=O)N[C@@H](Cc3ccccc3)C(=O)N[C@@H](Cc3csc4ccccc34)C(=O)N[C@@H](CCC(N)=O)C(N)=O)NC(=O)[C@H](C(C)C)NC(=O)[C@H](Cc3ccccc3)NC(=O)[C@H](C)NC(=O)[C@H](C)NC(=O)[C@H](Cc3ccc4ccccc4c3)NC(=O)[C@H](CC(=O)O)NC1=O)NC(=O)[C@H](C)NC(=O)[C@H](CC(=O)O)NC2=O (stereo partly drawn) [I-297, Ac-PL3-Asp-Ala-B5-Asp-2NapA-Ala-Ala-Phe-Val-S8-Phe-BztA-Gln-NH2]
 |  | 3.24 | 2.188 |  | CC(=O)N1CCC[C@]12CC=CCCCC1(CCCC=CCCCCCC[C@@](C)(C(=O)N[C@@H](Cc3cccc(Cl)c3)C(=O)N[C@@H](Cc3c[nH]c4ccccc34)C(=O)N[C@@H](CCC(N)=O)C(N)=O)NC(=O)[C@H](C(C)C)NC(=O)[C@H](Cc3ccccc3)NC(=O)[C@H](C)NC(=O)[C@H](C)NC(=O)[C@H](CC(=O)O)NC(=O)[C@H](CC(=O)O)NC1=O)NC(=O)[C@H](C)NC(=O)[C@H](CC(=O)O)NC2=O (stereo partly drawn) [I-310, Ac-PL3-Asp-Ala-B5-Asp-Asp-Ala-Ala-Phe-Val-S8-3C1F-Trp-Gln-NH2]
 |  | 1.24 | 2.226 |  | CC(=O)N1CCC[C@]12CC=CCCCC1(CCCC=CCCCCCC[C@@](C)(C(=O)N[C@@H](Cc3cccc(Cl)c3)C(=O)N[C@@H](Cc3c[nH]c4ccccc34)C(=O)N[C@@H](CCC(N)=O)C(N)=O)NC(=O)[C@H](C(C)C)NC(=O)[C@H](Cc3ccccc3)NC(=O)[C@H](C)NC(=O)[C@H](C)NC(=O)[C@H](CC(=O)O)NC(=O)[C@H](CC(=O)O)NC1=O)NC(=O)[C@H](C)NC(=O)[C@H](CC(=O)O)NC2=O (stereo partly drawn) [I-311, Ac-PL3-Asp-Ala-B5-Asp-Asp-Ala-Ala-Phe-Val-S8-3C1F-Trp-Gln-NH2]
 |  | 3.6 | 2.159 |  | CC(=O)N1CCC[C@]12CC=CCCCC1(CCCC=CCCCCCC[C@@](C)(C(=O)N[C@@H](Cc3ccc(Cl)cc3)C(=O)N[C@@H](Cc3c[nH]c4ccccc34)C(=O)N[C@@H](CCC(N)=O)C(N)=O)NC(=O)[C@H](C(C)C)NC(=O)[C@H](Cc3ccccc3)NC(=O)[C@H](C)NC(=O)[C@H](C)NC(=O)[C@H](CC(=O)O)NC(=O)[C@H](CC(=O)O)NC1=O)NC(=O)[C@H](C)NC(=O)[C@H](CC(=O)O)NC2=O (stereo partly drawn) [I-313, Ac-PL3-Asp-Ala-B5-Asp-Asp-Ala-Ala-Phe-Val-S8-4C1F-Trp-Gln-NH2]
 |  | 9.9 | 2.359 |  | CC(=O)N1CCC[C@]12CC=CCCCC1(CCCC=CCCCCCC[C@@](C)(C(=O)N[C@@H](Cc3ccccc3)C(=O)N[C@@H](Cc3c[nH]c4ccccc34)C(=O)N[C@@H](CCC(N)=O)C(N)=O)NC(=O)[C@H](C(C)C)NC(=O)[C@H](Cc3ccccc3)NC(=O)[C@H](C)NC(=O)[C@H](C)NC(=O)[C@H](CCC(=O)O)NC(=O)[C@H](CC(=O)O)NC1=O)NC(=O)[C@H](C)NC(=O)[C@H](Cc1c[nH]cn1)NC2=O (stereo partly drawn) [I-315, Ac-PL3-His-Ala-B5-Asp-Glu-Ala-Ala-Phe-Val-S8-Phe-Trp-Gln-NH2]
 |  | 0.355 | 1.933 |  | CC(=O)N1CCC[C@]12CC=CCCCC1(CCCC=CCCCCCC[C@@](C)(C(=O)N[C@@H](Cc3ccccc3)C(=O)N[C@@H](Cc3c[nH]c4ccccc34)C(=O)N[C@@H](CCC(N)=O)C(N)=O)NC(=O)[C@H](C(C)C)NC(=O)[C@H](Cc3ccc(N)cc3)NC(=O)[C@H](C)NC(=O)[C@H](C)NC(=O)[C@H](CC(=O)O)NC(=O)[C@H](CC(=O)O)NC1=O)NC(=O)[C@H](C)NC(=O)[C@H](CC(=O)O)NC2=O (stereo partly drawn) [I-322, Ac-PL3-Asp-Ala-B5-Asp-Asp-Ala-Ala-4AmPhe-Val-S8-Phe-Trp-Gln-NH2]
 |  | 1.75 |  | 2.6 | CC(=O)N1CCC[C@]12CC=CCCCC1(CCCC=CCCCCCC[C@@](C)(C(=O)N[C@@H](Cc3ccccc3)C(=O)N[C@@H](Cc3c[nH]c4ccccc34)C(=O)N[C@@H](CCC(N)=O)C(N)=O)NC(=O)[C@H](C(C)C)NC(=O)[C@H](Cc3ccccc3)NC(=O)[C@H](C)NC(=O)[C@H](C)NC(=O)[C@H](Cc3ccc(N)cc3)NC(=O)[C@H](CC(=O)O)NC1=O)NC(=O)[C@H](C)NC(=O)[C@H](CC(=O)O)NC2=O (stereo partly drawn) [I-324, Ac-PL3-Asp-Ala-B5-Asp-4AmPhe-Ala-Ala-Phe-Val-S8-Phe-Trp-Gln-NH2]
